Experimental data reported in US7432089B2, “DNA encoding favin-adenine-dinucleotide-dependent-D-erythronate-4-phosphate-de-hydrogenase, pdxR, and microbial production of vitamin B6” (DSM IP Assets B.V., priority 2002, dated 2008).

How the values were obtained:
PdxR = assay: Substrate specificity of PdxR (DCIP reduction, A600); assay type: biochemical, S. meliloti
Method: Substrate specificity of PdxR was examined using the finally purified enzyme solution prepared in Example 2[C] (1). The standard enzyme assay was performed as follows: the basal reaction mixture (total volume 150 μl) consisting of 33 mM potassium phosphate buffer (pH 7.0), 2.4 μg proteins, 0.091 mM DCIP, and water up to a total volume of 144 μl, and was incubated for 1 minute at room temperature (21° C.). […]. The decrease in A600 was monitored at 21° C. for 1 minute for EN4P dehydrogenase read with a UV-VIS recording spectrophotometer UV 2200. One unit of the enzyme activity was defined as the amount of enzyme reduced 1 nmol of DCIP for 1 minute under the action of EN4P dehydrogenase in the assay system described above.

S. meliloti 16C18 = assay: Growth of vitamin B6-deficient mutant on supplemented EMM plate; assay type: cell-based, Sinorhizobium meliloti
Method: These colonies were streaked on LBMC plates containing same antibiotics and incubated for 2 days at 30° C. The cells grown on the plates were inoculated on vitamin B6 assay plates (Table 1) containing Saccharomyces carlsbergensis ATCC 9080 as a vitamin B6 indicator strain. After incubation for 2 days at 30° C., one colony that had no halo of Saccharomyces carlsbergensis ATCC 9080 was obtained. The strain was named as S. meliloti 16C18. […] Further, S. meliloti 16C18 grew on EMM plate which was supplemented with 4 mg/L of 4-HT or 400 μg/L of PN.

CFE of S. meliloti 16C18 = assay: EN4P dehydrogenase activity with an electron acceptor in cell-free extract (color change); assay type: biochemical; conditions: 21° C.
Method: (§1) The frozen cells were thawed slowly, suspended with 200 ml of 10 mM Tris-HCl buffer, pH 7.5. The suspension was passed through a French pressure cell at 800 kg/cm^2. The homogenate was centrifuged to remove the cell debris at 37,000×g for 90 minutes and then each 165 ml of supernatants was used as cell-free extract (CFE) and the protein contents in S. meliloti 16C18 and S. meliloti 16C18/pVK-pdxR were 5,030 and 5,042 mg, respectively.
(§2) EN4P dehydrogenase activity with NAD^+ or NADP^+ in CFE was determined by the formation of NADH or NADPH, which absorbs at 340 nm. Reaction mixture (150 μl) for assaying EN4P dehydrogenase activity contained 33 mM potassium phosphate buffer, pH 7.0, 2.3 mM EN4P, 1 mM NAD^+ or NADP^+, and CFE prepared from cells of S. meliloti 16C18 or S. meliloti 16C18/pVK-pdxR (each 0.16 mg protein). The increase of A340 was monitored at room temperature (21° C.) for 1 min in a UV-VIS recording spectrophotometer UV 2200 (Shimadzu Instruments, Inc., Kyoto, Japan), but the increase of A340 was not observed in enzyme reaction mixtures with any CFEs. Therefore, the both CFEs were determined to have no NAD^+ or NADP^+ dependent EN4P dehydrogenase activity. EN4P dehydrogenase activity with an electron acceptor in CFE was examined at room temperature (21° C.) by color change due to formation of reduced form from oxidized form of an electron acceptor. Reaction mixture (150 μl) contained 33 mM potassium phosphate buffer, pH 7.0, 2.3 mM EN4P, CFE (0.16 mg protein), and an electron acceptor such as 2,6-dichlorophenolindophenol (0.091 mM) (Wako Pure chemical Industries, Ltd., Osaka, Japan) (referred to as DCIP hereinafter) or ferricyanide (1.3 mM) (Wako Pure chemical Industries, Ltd., Osaka, Japan). […]

[1] = test system: pdxR gene product in CFE of S. meliloti 16C18/pVK-pdxR; assay: as above; assay type: biochemical; conditions: 21° C.
Method: as §1, §2

[2] = test system: purified PdxR treated with ammonium sulfate; assay: Effect of flavin on discoloration of DCIP in reaction mixture; assay type: biochemical, S. meliloti
Method: To characterize a flavin binding to PdxR protein, ammonium sulfate fractionation was applied in the finally purified enzyme solution prepared in Example 2[C] (1) according to a method of Cammack [Biochem. J. 109:45-46 (1968)]. The enzyme solution (1 ml, containing 4.74 mg proteins) was dialyzed overnight against 1 liter of 80% (w/v) ammonium sulfate solution and its resultant precipitate in a dialysis membrane was collected by centrifugation at 34,800×g for 30 min, dissolved in 0.5 ml of 10 mM Tris-HCl, pH 7.5, and dialyzed overnight against 4 liters of the same buffer. The volume of dialyzed enzyme solution was brought to 1 ml with 10 mM Tris-HCl, pH 7.5.
The degree of discoloration was judged at 3 minutes.

[3] = test system: EN4P dehydrogenase in CFE of S. meliloti 16C18 or S. meliloti 16C18/pVK-pdxR; assay: EN4P dehydrogenase activity with NAD+ or NADP+ in CFE (increase of A340); assay type: biochemical; conditions: 1 mM coenzyme, 2.3 mM EN4P, any CFE, 21° C., 1 min
Method: as §2

EN4P dehydrogenase = assay: Cytochrome c as electron acceptor of EN4P dehydrogenase (absorption spectra 400-600 nm); assay type: biochemical, S. meliloti; conditions: 80 μM oxidized cytochrome c, 2.3 mM EN4P, CFE, 21° C., 2-20 min
Method: Furthermore, possibility of cytochrome c instead of DCIP or ferricyanide in above-mentioned enzyme reaction system of EN4P dehydrogenase with an electron acceptor was examined by measuring change of absorption spectra in 400-600 nm spectral regions due to formation of reduced form from oxidized form of cytochrome c at room temperature (21° C.). Reaction mixture (150 μl) contained 33 mM potassium phosphate buffer, pH 7.0, 2.3 mM EN4P, 80 μM oxidized form of cytochrome c (from equine heart, Sigma Chemical Co.) as an electron acceptor, and CPE (0.16 mg protein). Absorption spectra of the reaction mixture of zero time and after 2, 5, 10, 15 and 20 min at room temperature (21° C.) were monitored with a UV-VIS recording spectrophotometer UV 2200. The absorption spectrum of zero time had only a broad peak at 525 nm, but spectra after 2 min appeared a new peak at 550 nm corresponding to reduced form of cytochrome c, and the absorption in the 550 nm region after 5, 10, 15 and 20 min was increased with time course.

[4] = substrate 2.28 mM, 0.091 mM DCIP, pH 7.0, 21° C.

Sequence of EN4P dehydrogenase (as listed by the source): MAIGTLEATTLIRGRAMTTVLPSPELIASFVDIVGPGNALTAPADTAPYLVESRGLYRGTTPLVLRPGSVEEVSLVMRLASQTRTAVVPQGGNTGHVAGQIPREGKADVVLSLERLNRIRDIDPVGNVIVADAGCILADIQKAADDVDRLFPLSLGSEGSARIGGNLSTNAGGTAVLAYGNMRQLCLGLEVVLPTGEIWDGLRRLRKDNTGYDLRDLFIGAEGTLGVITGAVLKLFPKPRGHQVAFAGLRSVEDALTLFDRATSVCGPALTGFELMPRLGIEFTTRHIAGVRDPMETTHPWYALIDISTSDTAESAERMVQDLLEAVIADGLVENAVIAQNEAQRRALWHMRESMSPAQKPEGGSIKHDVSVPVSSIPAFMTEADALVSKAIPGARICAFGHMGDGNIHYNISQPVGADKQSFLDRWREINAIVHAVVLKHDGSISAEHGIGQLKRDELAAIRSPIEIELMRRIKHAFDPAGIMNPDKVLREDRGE

CC(O)C(=O)O (racemic) [D,L-lactate]
Activity (nmol/min/mg protein) (PdxR; pH 7): 0 nmol/min/mg protein

N[C@H](C(=O)O)[C@H](O)CO [4-HT, 4-hydroxy-L-threonine]
Growth of S. meliloti 16C18 on supplemented EMM plate (S. meliloti 16C18; EMM plate supplemented with 4 mg/L of 4-HT): grew

O=C(O)[C@H](O)CO [D(+) glyceric acid]
Activity (nmol/min/mg protein) (PdxR; [4]): 0 nmol/min/mg protein

O=C(O)CC(C(=O)O)C(O)C(=O)O [D,L-isocitrate]
Activity (nmol/min/mg protein) (PdxR; [4]): 0 nmol/min/mg protein

O=C(O)[C@H](O)COP(=O)(O)O [D-(−)-glyceric acid 3-phosphate]
Activity (nmol/min/mg protein) (PdxR; [4]): 0 nmol/min/mg protein

O=C(O)[C@H](O)[C@H](O)CO [D-erythronate]
Activity (nmol/min/mg protein) (PdxR; pH 7): 0 nmol/min/mg protein

O=C1C=CC(=Nc2cc(Cl)c(O)c(Cl)c2)C=C1 [DCIP, 2,6-dichlorophenolindophenol]
Color change of electron acceptor in reaction mixture (CFE of S. meliloti 16C18; CFE of S. meliloti 16C18, + EN4P (2.3 mM)): No change | Color change of electron acceptor in reaction mixture (CFE of S. meliloti 16C18; CFE of S. meliloti 16C18, − EN4P): No change | Color change of electron acceptor in reaction mixture [1]: No change

O=C(O)[C@H](O)[C@H](O)COP(=O)(O)O [EN4P, D-erythronate 4-phosphate]
Oxidation by PdxR (PdxR; substrate 2.28 mM, 0.091 mM DCIP): oxidized | Activity (nmol/min/mg protein) (PdxR; [4]): 946 nmol/min/mg protein

Cc1cc2nc3c(=O)[nH]c(=O)nc-3n(C[C@H](O)[C@H](O)[C@H](O)COP(=O)(O)OP(=O)(O)OC[C@H]3O[C@@H](n4cnc5c(N)ncnc54)[C@H](O)[C@@H]3O)c2cc1C [FAD, flavin adenine dinucleotide]
Flavin concentration at which discoloration of DCIP occurred ([2]; judged at 3 minutes, 21° C.): greater than 0.014 μM

Cc1cc2nc3c(=O)[nH]c(=O)nc-3n(C[C@H](O)[C@H](O)[C@H](O)COP(=O)(O)O)c2cc1C [FMN, flavin mononucleotide]
Discoloration of DCIP ([2]; any FMN concentrations): did not occur

C[C@H](O)C(=O)O [L-(+)-lactic acid]
Activity (nmol/min/mg protein) (PdxR; [4]): 0 nmol/min/mg protein

O=C(O)C[C@H](O)C(=O)O [L-malic acid]
Activity (nmol/min/mg protein) (PdxR; [4]): 0 nmol/min/mg protein

NC(=O)c1ccc[n+]([C@@H]2O[C@H](COP(=O)([O-])OP(=O)(O)OC[C@H]3O[C@@H](n4cnc5c(N)ncnc54)[C@H](OP(=O)(O)O)[C@@H]3O)[C@@H](O)[C@H]2O)c1 [NADP^+]
Increase of A340 (formation of NADH or NADPH) [3]: not observed

NC(=O)c1ccc[n+]([C@@H]2O[C@H](COP(=O)([O-])OP(=O)(O)OC[C@H]3O[C@@H](n4cnc5c(N)ncnc54)[C@H](O)[C@@H]3O)[C@@H](O)[C@H]2O)c1 [NAD^+]
Increase of A340 (formation of NADH or NADPH) [3]: not observed

Cc1ncc(CO)c(CO)c1O [PN, pyridoxol]
Growth of S. meliloti 16C18 on supplemented EMM plate (S. meliloti 16C18; EMM plate supplemented with 400 μg/L of PN): grew

O=C(O)CO [glycolate]
Activity (nmol/min/mg protein) (PdxR; [4]): 0 nmol/min/mg protein

O=C(O)COP(=O)(O)O [glycolic acid 2-phosphate]
Activity (nmol/min/mg protein) (PdxR; [4]): 0 nmol/min/mg protein

O=CC(=O)O [glyoxylate]
Activity (nmol/min/mg protein) (PdxR; [4]): 0 nmol/min/mg protein

cytochrome c
Function as electron acceptor (reduced form peak at 550 nm) (EN4P dehydrogenase): works as electron acceptor
